Measurements: EP2072037A1, “Hair dyeing compositions” (Farmen International Cosmetics Distribution S.p.A, priority 2007, dated 2009)

Tested on: HaCaT cells
Assay: MTT cytotoxicity assay on human keratinocytes (skin irritation potential)
Format: cell-based
Settings: two hours
Text: To evaluate the skin irritation potential of compositions C and D (containing paraphenyldiamine) illustrated in example 1, an in vitro test was used, consisting of a cytotoxicity assay performed on a line of human keratinocytes (transformed human keratinocytes, HaCaT cells) that maintain full epidermal differentiation capability.
In this case, the goal of the test was to determine the effects of compositions C and D illustrated in Example 1 on the proliferation of keratinocytes through the cell vitality test, indirectly measured by MTT staining (Mossnam T, […], J. Immunol. Methods, 65:55-63).
The specimen comprising composition C or D was previously mixed with oxidant cream in the proportion 1:1.5 and left to act for 15 minutes. […]
The cells were treated for two hours to simulate the conditions of use of the dye. At the end of the two hours, the cells were subjected to the MTT test.
From this value, the irritant potential of composition C and composition D can be estimated. Negative control comprised no treatment, whereas the surfactant sodium lauryl sulphate (SLS), whose cytotoxicity is well known, was used as positive control. Each experiment was done in triplicate, on cells plated 24 hours previously.

## CCCCCCCCCCCCOS(=O)(=O)[O-].[Na+] [SLS, sodium lauryl sulphate]
Dose 0.03 mg/mL
  Cell vitality % (versus negative control): 101.5%
Dose 0.06 mg/mL
  Cell vitality % (versus negative control): 109.7%
Dose 0.12 mg/mL
  Cell vitality % (versus negative control): 74.0%
Dose 0.25 mg/mL
  Cell vitality % (versus negative control): 3.4%
Dose 0.5 mg/mL
  Cell vitality % (versus negative control): 3.1%
Homo sapiens, 2 h, concentration reducing cell vitality by 50% versus untreated cells, theoretical value from regression curve, MTT
  IC50: 148 µg/mL
